The test system of the data set is CCRIS mutagenicity, Ames/micronucleus/aberration tests. Nature of the data set: CCRIS mutagenicity studies. Conditions: Test System: AMES SALMONELLA TYPHIMURIUM
Setting [1] is: Strain/Indicator: TA100, Metabolic Activation: NONE, Method: STANDARD PLATE.
Where [2] appears, read: Strain/Indicator: TA100, Metabolic Activation: RAT, LIVER, S-9, AROCLOR 1254, Method: STANDARD PLATE.
Where [3] appears, read: Strain/Indicator: TA1535, Metabolic Activation: NONE, Method: STANDARD PLATE.
[4] abbreviates: Strain/Indicator: TA1535, Metabolic Activation: RAT, LIVER, S-9, AROCLOR 1254, Method: STANDARD PLATE.

Activity calls are given as the source filed them. The rule behind the calls is not given here.

With `Nc1cc([N+](=O)[O-])c(N)cc1F`, the mutagenic call reads like this: (Strain/Indicator: TA98, Metabolic Activation: NONE, Method: STANDARD PLATE) “active; positive”; (Strain/Indicator: TA98, Metabolic Activation: RAT, LIVER, S-9, AROCLOR 1254, Method: STANDARD PLATE) “active; positive”; under setting [1], “inactive; negative”; under setting [2], “active; positive”; under setting [3], “inactive; negative”; under setting [4], “inactive; negative”. The mutagenic call runs as follows: (Strain/Indicator: TA1537, Metabolic Activation: NONE, Method: STANDARD PLATE) “active; positive”; (Strain/Indicator: TA1537, Metabolic Activation: RAT, LIVER, S-9, AROCLOR 1254, Method: STANDARD PLATE) “active; positive”; (Strain/Indicator: TA1538, Metabolic Activation: NONE, Method: STANDARD PLATE) “active; positive”; (Strain/Indicator: TA1538, Metabolic Activation: RAT, LIVER, S-9, AROCLOR 1254, Method: STANDARD PLATE) “active; positive”.
Consider `CCCOc1ccccc1C(=O)NOC(C)=O`, for which the mutagenic call is, setting by setting: under setting [1], “active; positive”; (Strain/Indicator: TA100, Metabolic Activation: RAT, S-9, AROCLOR, Method: STANDARD PLATE) “active; positive”.
For `CN(Cc1ccccc1)N=O`, the mutagenic call was “active; positive” under setting [2]; “active; positive” (Strain/Indicator: TA100, Metabolic Activation: RAT, LIVER, S-9, ETHANOL, Method: STANDARD PLATE); “active; positive” (Strain/Indicator: TA100, Metabolic Activation: RAT, LIVER, S-9, KC500 OR PHENOBARBITAL, Method: LIQUID SUSPENSION); “active; positive” (Strain/Indicator: TA100, Metabolic Activation: RAT, LIVER, S-9, Method: STANDARD PLATE); “active; positive” (Strain/Indicator: TA1535, Metabolic Activation: HAMSTER, LIVER, S-9, AROCLOR 1254, Method: STANDARD PLATE); “inactive; negative” (Strain/Indicator: TA1535, Metabolic Activation: NONE, Method: PREINCUBATION). Also, the mutagenic call reads like this: under setting [3], “inactive; negative”; (Strain/Indicator: TA1535, Metabolic Activation: RAT, LIVER, HEPATOCYTES, Method: PREINCUBATION) “inactive; negative”; under setting [4], “active; positive”; (Strain/Indicator: TA1535, Metabolic Activation: RAT, LIVER, S-9, AROCLOR, Method: PREINCUBATION) “active; positive”; (Strain/Indicator: TA1535, Metabolic Activation: RAT, LIVER, S-9, ETHANOL, Method: STANDARD PLATE) “inactive; negative”; (Strain/Indicator: TA1535, Metabolic Activation: RAT, LIVER, S-9, SODIUM PHENOBARBITONE, Method: PREINCUBATION) “active; positive”. Besides, the mutagenic call runs as follows: (Strain/Indicator: TA1535, Metabolic Activation: RAT, LIVER, S-9, Method: PREINCUBATION) “inactive; negative”; (Strain/Indicator: TA1535, Metabolic Activation: RAT, LIVER, S-9, Method: STANDARD PLATE) “inactive; negative”.
For `O=C1OC(O)C(CBr)=C1Br` (centres undefined), under setting [1], the mutagenic call was “active; positive”.
For the compound `Nc1ccc2nc3c(N)cccc3nc2c1`, the mutagenic call by setting is: (Strain/Indicator: TA98, Metabolic Activation: NONE, Method: PREINCUBATION) “inactive; negative”; (Strain/Indicator: TA98, Metabolic Activation: RAT, LIVER, S-9, PCB, Method: PREINCUBATION) “active; positive”.
